Laboratory results taken from ChEMBL document CHEMBL6096719, “Kidney Targeting Smart Antibiotic Discovery: Multimechanism Pleuromutilins for Pyelonephritis Therapy” (J Med Chem, 2025).
≈ marks a conversion by molar mass, not a printed value.

Experiments:
[1] = Aqueous solubility of the compound incubated for 12 hrs by UV-Vis spectrophotometry; type: physicochemical; conditions: buffer
Staphylococcus aureus [2] = assay: Antibacterial activity against methicillin-resistant Staphylococcus aureus 171 assessed as inhibition of bacterial growth incubated for 24 hrs by broth microdilution method; type: functional
Staphylococcus aureus [3] = assay: Antibacterial activity against methicillin-resistant Staphylococcus aureus 575 assessed as inhibition of bacterial growth incubated for 24 hrs by broth microdilution method; type: functional
Staphylococcus aureus [4] = assay: Antibacterial activity against methicillin-resistant Staphylococcus aureus 206 assessed as inhibition of bacterial growth incubated for 24 hrs by broth microdilution method; type: functional
Staphylococcus aureus [5] = assay: Antibacterial activity against methicillin-resistant Staphylococcus aureus 222 assessed as inhibition of bacterial growth incubated for 24 hrs by broth microdilution method; type: functional
Staphylococcus aureus [6] = assay: Antibacterial activity against methicillin-resistant Staphylococcus aureus 596 assessed as inhibition of bacterial growth incubated for 24 hrs by broth microdilution method; type: functional
Enterococcus = assay: Antibacterial activity against vancomycin-resistant Enterococcus 80 assessed as inhibition of bacterial growth incubated for 24 hrs by broth microdilution method; type: functional
Pseudomonas aeruginosa = assay: Antibacterial activity against multidrug-resistant Pseudomonas aeruginosa 126 assessed as inhibition of bacterial growth incubated for 24 hrs by broth microdilution method; type: functional
Klebsiella pneumoniae = assay: Antibacterial activity against multidrug-resistant Klebsiella pneumoniae 893 assessed as inhibition of bacterial growth incubated for 24 hrs by broth microdilution method; type: functional
Acinetobacter baumannii [7] = assay: Antibacterial activity against carbapenem-resistant Acinetobacter baumannii 882 assessed as inhibition of bacterial growth incubated for 24 hrs by broth microdilution method; type: functional
[8] = Cytotoxicity against human HepG2 cells assessed as reduction in cell viability incubated for 24 hrs by CCK8 assay; type: toxicity, cell-based
[9] = Cytotoxicity against human HEK293 cells assessed as reduction in cell viability incubated for 24 hrs by CCK8 assay; type: toxicity, cell-based
[10] = Cytotoxicity against human A549 cells assessed as reduction in cell viability incubated for 24 hrs by CCK8 assay; type: toxicity, cell-based
Staphylococcus aureus [11] = assay: Antibacterial activity against methicillin-resistant Staphylococcus aureus ATCC 33591 assessed as inhibition of bacterial growth incubated for 24 hrs by broth microdilution method; type: functional
Staphylococcus aureus [12] = assay: Antibacterial activity against methicillin-resistant Staphylococcus aureus ATCC 43300 assessed as inhibition of bacterial growth incubated for 24 hrs by broth microdilution method; type: functional
Staphylococcus aureus [13] = assay: Antibacterial activity against Staphylococcus aureus ATCC 29213 assessed as inhibition of bacterial growth incubated for 24 hrs by broth microdilution method; type: functional
[14] = system: Staphylococcus epidermidis; assay: Antibacterial activity against methicillin-resistant Staphylococcus epidermidis ATCC 51625 assessed as inhibition of bacterial growth incubated for 24 hrs by broth microdilution method; type: functional
Acinetobacter baumannii [15] = assay: Antibacterial activity against Acinetobacter baumannii ATCC 19606 assessed as inhibition of bacterial growth incubated for 24 hrs by broth microdilution method; type: functional
Salmonella enterica = assay: Antibacterial activity against Salmonella enterica ATCC 14028 assessed as inhibition of bacterial growth incubated for 24 hrs by broth microdilution method; type: functional
Escherichia coli [16] = assay: Antibacterial activity against Escherichia coli ATCC 25922 assessed as inhibition of bacterial growth incubated for 24 hrs by broth microdilution method; type: functional
Escherichia coli [17] = assay: Antibacterial activity against Escherichia coli CMCC 44103 assessed as inhibition of bacterial growth incubated for 24 hrs by broth microdilution method; type: functional

C=C[C@]1(C)C[C@@H](OC(=O)CSc2nc3cc[n+](Cc4cc(C)cc(C)c4)cc3[nH]2)[C@]2(C)[C@H](C)CC[C@]3(CCC(=O)[C@H]32)[C@@H](C)[C@@H]1O.[Br-]
solubility at 12 h [1]: 414 µg/mL

C=C[C@]1(C)C[C@@H](OC(=O)CS[C@@H]2C[C@H]3CC[C@@H](C2)N3C)[C@]2(C)[C@H](C)CC[C@]3(CCC(=O)[C@H]32)[C@@H](C)[C@@H]1O [RETAPAMULIN]
MIC (Staphylococcus aureus [2]): 128 µg/mL (≈ 247 µM)
MIC (Staphylococcus aureus [3]): 32 µg/mL (≈ 61.8 µM)
MIC (Staphylococcus aureus [4]): 64 µg/mL (≈ 124 µM)
MIC (Staphylococcus aureus [5]): 128 µg/mL (≈ 247 µM)
MIC (Staphylococcus aureus [6]): 32 µg/mL (≈ 61.8 µM)
MIC (Enterococcus): > 128 µg/mL
MIC (Pseudomonas aeruginosa): 64 µg/mL (≈ 124 µM)
MIC (Klebsiella pneumoniae): 128 µg/mL (≈ 247 µM)
MIC (Acinetobacter baumannii [7]): 64 µg/mL (≈ 124 µM)
CC50 at 24 h [8]: 61.1 µM
CC50 at 24 h [9]: 57.5 µM
CC50 at 24 h [10]: 71.5 µM

C=C[C@]1(C)C[C@@H](OC(=O)CSc2nc3cc[n+](Cc4ccc(-c5ccccc5)cc4)cc3[nH]2)[C@]2(C)[C@H](C)CC[C@]3(CCC(=O)[C@H]32)[C@@H](C)[C@@H]1O.[Br-]
solubility at 12 h [1]: 367 µg/mL

C=C[C@]1(C)C[C@@H](OC(=O)CSc2nc3cc[n+](Cc4cc(C)cc(C)c4)cc3s2)[C@]2(C)[C@H](C)CC[C@]3(CCC(=O)[C@H]32)[C@@H](C)[C@@H]1O.[Br-]
solubility at 12 h [1]: 392 µg/mL

C=C[C@]1(C)C[C@@H](OC(=O)CSCCN(CC)CC)[C@]2(C)[C@H](C)CC[C@]3(CCC(=O)[C@H]32)[C@@H](C)[C@@H]1O [TIAMULIN]
solubility at 12 h [1]: 128 µg/mL (≈ 259 µM)

C=C[C@]1(C)C[C@@H](OC(=O)CSc2nc3cc[n+](Cc4ccc(-c5ccccc5)cc4)cc3s2)[C@]2(C)[C@H](C)CC[C@]3(CCC(=O)[C@H]32)[C@@H](C)[C@@H]1O.[Br-]
solubility at 12 h [1]: 391 µg/mL

C=C[C@]1(C)C[C@@H](OC(=O)CSc2nc3cc[n+](Cc4ccc(OC)cc4)cc3[nH]2)[C@]2(C)[C@H](C)CC[C@]3(CCC(=O)[C@H]32)[C@@H](C)[C@@H]1O.[Br-]
solubility at 12 h [1]: 150 µg/mL

C=C[C@]1(C)C[C@@H](OC(=O)CSc2nc3cc[n+](Cc4ccc(OC)cc4)cc3s2)[C@]2(C)[C@H](C)CC[C@]3(CCC(=O)[C@H]32)[C@@H](C)[C@@H]1O.[Br-]
solubility at 12 h [1]: 177 µg/mL

C=C[C@]1(C)C[C@@H](OC(=O)CSc2nc3cc[n+](Cc4cc(F)c(F)cc4F)cc3[nH]2)[C@]2(C)[C@H](C)CC[C@]3(CCC(=O)[C@H]32)[C@@H](C)[C@@H]1O.[Br-]
solubility at 12 h [1]: 539 µg/mL

C=C[C@]1(C)C[C@@H](OC(=O)CSc2nc3cc[n+](Cc4ccc(C(F)(F)F)cc4)cc3[nH]2)[C@]2(C)[C@H](C)CC[C@]3(CCC(=O)[C@H]32)[C@@H](C)[C@@H]1O.[Br-]
solubility at 12 h [1]: 337 µg/mL

C=C[C@]1(C)C[C@@H](OC(=O)CSc2nc3cc[n+](Cc4cc(OC)cc(OC)c4)cc3s2)[C@]2(C)[C@H](C)CC[C@]3(CCC(=O)[C@H]32)[C@@H](C)[C@@H]1O.[Br-]
solubility at 12 h [1]: 94 µg/mL

C=C[C@]1(C)C[C@@H](OC(=O)CSc2nc3cc[n+](Cc4ccc(Cl)cc4)cc3s2)[C@]2(C)[C@H](C)CC[C@]3(CCC(=O)[C@H]32)[C@@H](C)[C@@H]1O.[Br-]
solubility at 12 h [1]: 449 µg/mL

C=C[C@]1(C)C[C@@H](OC(=O)CSc2nc3cc[n+](Cc4cc(F)c(F)cc4F)cc3s2)[C@]2(C)[C@H](C)CC[C@]3(CCC(=O)[C@H]32)[C@@H](C)[C@@H]1O.[Br-]
solubility at 12 h [1]: 485 µg/mL

C=C[C@]1(C)C[C@@H](OC(=O)CSc2nc3cc[n+](Cc4ccc(Br)cc4)cc3s2)[C@]2(C)[C@H](C)CC[C@]3(CCC(=O)[C@H]32)[C@@H](C)[C@@H]1O.[Br-]
solubility at 12 h [1]: 344 µg/mL

C=C[C@]1(C)C[C@@H](OC(=O)CSc2nc3cc[n+](Cc4ccc(Cl)cc4)cc3[nH]2)[C@]2(C)[C@H](C)CC[C@]3(CCC(=O)[C@H]32)[C@@H](C)[C@@H]1O.[Br-]
solubility at 12 h [1]: 419 µg/mL

C=C[C@]1(C)C[C@@H](OC(=O)CSc2nc3cc[n+](Cc4ccc(C#N)cc4)cc3[nH]2)[C@]2(C)[C@H](C)CC[C@]3(CCC(=O)[C@H]32)[C@@H](C)[C@@H]1O.[Br-]
solubility at 12 h [1]: 481 µg/mL
MIC (Staphylococcus aureus [11]): < 2 µg/mL
MIC (Staphylococcus aureus [12]): < 2 µg/mL
MIC (Staphylococcus aureus [13]): < 2 µg/mL
MIC [14]: < 2 µg/mL
MIC (Acinetobacter baumannii [15]): < 2 µg/mL
MIC (Salmonella enterica): < 2 µg/mL
MIC (Escherichia coli [16]): < 2 µg/mL
MIC (Escherichia coli [17]): < 2 µg/mL
MIC (Staphylococcus aureus [2]): 16 µg/mL
MIC (Staphylococcus aureus [3]): 32 µg/mL
MIC (Staphylococcus aureus [4]): 4 µg/mL
MIC (Staphylococcus aureus [5]): 16 µg/mL
MIC (Staphylococcus aureus [6]): 8 µg/mL
MIC (Enterococcus): 2 µg/mL
MIC (Pseudomonas aeruginosa): 32 µg/mL
MIC (Klebsiella pneumoniae): 16 µg/mL
MIC (Acinetobacter baumannii [7]): 64 µg/mL
CC50 at 24 h [8]: 96.3 µM
CC50 at 24 h [9]: > 100 µM
CC50 at 24 h [10]: > 100 µM

C=C[C@]1(C)C[C@@H](OC(=O)CSc2nc3cc[n+](Cc4cc(F)ccc4C#N)cc3[nH]2)[C@]2(C)[C@H](C)CC[C@]3(CCC(=O)[C@H]32)[C@@H](C)[C@@H]1O.[Br-]
solubility at 12 h [1]: 91.8 µg/mL

C=C[C@]1(C)C[C@@H](OC(=O)CSc2nc3cc[n+](Cc4cc(F)ccc4C#N)cc3s2)[C@]2(C)[C@H](C)CC[C@]3(CCC(=O)[C@H]32)[C@@H](C)[C@@H]1O.[Br-]
solubility at 12 h [1]: 168 µg/mL

C=C[C@]1(C)C[C@@H](OC(=O)CSc2nc3cc[n+](Cc4ccc(C(F)(F)F)cc4)cc3s2)[C@]2(C)[C@H](C)CC[C@]3(CCC(=O)[C@H]32)[C@@H](C)[C@@H]1O.[Br-]
solubility at 12 h [1]: 246 µg/mL

Br.C=C[C@]1(C)C[C@@H](OC(=O)CSc2nc3cc[n+](Cc4ccc([N+](=O)[O-])cc4)cc3s2)[C@]2(C)[C@H](C)CC[C@]3(CCC(=O)[C@H]32)[C@@H](C)[C@@H]1O
solubility at 12 h [1]: 648 µg/mL

Br.C=C[C@]1(C)C[C@@H](OC(=O)CSc2nc3cc[n+](Cc4ccc([N+](=O)[O-])cc4)cc3[nH]2)[C@]2(C)[C@H](C)CC[C@]3(CCC(=O)[C@H]32)[C@@H](C)[C@@H]1O
solubility at 12 h [1]: 691 µg/mL

C=C[C@]1(C)C[C@@H](OC(=O)CSc2nc3cc[n+](Cc4ccc(Br)cc4)cc3[nH]2)[C@]2(C)[C@H](C)CC[C@]3(CCC(=O)[C@H]32)[C@@H](C)[C@@H]1O.[Br-]
solubility at 12 h [1]: 432 µg/mL

C=C[C@]1(C)C[C@@H](OC(=O)CSc2nc3cc[n+](Cc4ccc(C)cc4)cc3s2)[C@]2(C)[C@H](C)CC[C@]3(CCC(=O)[C@H]32)[C@@H](C)[C@@H]1O.[Br-]
solubility at 12 h [1]: 568 µg/mL
MIC (Staphylococcus aureus [2]): 8 µg/mL
MIC (Staphylococcus aureus [3]): 4 µg/mL
MIC (Staphylococcus aureus [4]): 2 µg/mL
MIC (Staphylococcus aureus [5]): 4 µg/mL
MIC (Staphylococcus aureus [6]): 8 µg/mL
MIC (Enterococcus): 8 µg/mL
MIC (Pseudomonas aeruginosa): 8 µg/mL
MIC (Klebsiella pneumoniae): 2 µg/mL
MIC (Acinetobacter baumannii [7]): 4 µg/mL
CC50 at 24 h [8]: 46.4 µM
CC50 at 24 h [9]: 82.1 µM
CC50 at 24 h [10]: > 100 µM

C=C[C@]1(C)C[C@@H](OC(=O)CSc2nc3cc[n+](Cc4ccc(C(C)(C)C)cc4)cc3s2)[C@]2(C)[C@H](C)CC[C@]3(CCC(=O)[C@H]32)[C@@H](C)[C@@H]1O.[Br-]
solubility at 12 h [1]: 453 µg/mL

C=C[C@]1(C)C[C@@H](OC(=O)CSc2nc3cc[n+](Cc4ccc(C(C)(C)C)cc4)cc3[nH]2)[C@]2(C)[C@H](C)CC[C@]3(CCC(=O)[C@H]32)[C@@H](C)[C@@H]1O.[Br-]
solubility at 12 h [1]: 486 µg/mL

C=C[C@]1(C)C[C@@H](OC(=O)CSc2nc3cc[n+](Cc4ccc(F)cc4)cc3s2)[C@]2(C)[C@H](C)CC[C@]3(CCC(=O)[C@H]32)[C@@H](C)[C@@H]1O.[Br-]
solubility at 12 h [1]: 395 µg/mL

C=C[C@]1(C)C[C@@H](OC(=O)CSc2nc3cc[n+](Cc4cc(OC)cc(OC)c4)cc3[nH]2)[C@]2(C)[C@H](C)CC[C@]3(CCC(=O)[C@H]32)[C@@H](C)[C@@H]1O.[Br-]
solubility at 12 h [1]: 176 µg/mL

C=C[C@]1(C)C[C@@H](OC(=O)CSc2nc3cc[n+](Cc4ccc(F)cc4)cc3[nH]2)[C@]2(C)[C@H](C)CC[C@]3(CCC(=O)[C@H]32)[C@@H](C)[C@@H]1O.[Br-]
solubility at 12 h [1]: 159 µg/mL
